The values that follow are results of earlier work, collected in US6413525B1, “Methods of exfoliation using N-acetyl glucosamine” (Color Access, Inc., priority 1999, dated 2002).

The data set concerns skin. The settings on record: as disclosed in WO97/12597.

For the molecule `CC(=O)N[C@H]1C(O)O[C@H](CO)[C@@H](O)[C@@H]1O` (stereo partly drawn) [N-acetyl-D-glucosamine], the “efficacy as a topical desquamating agent” value is reported as “not found to be effective”.
